Source: a compilation of properties of binary mixtures (doi:10.1021/acs.jced.1c00023)

Test: xn = mol fraction of the nth substance listed
Details: 101.3 kPa

## Oc1cccc(O)c1O + CCCCCCCCCCCC[N+](C)(C)C.[Br-]
293.15 K, x2 = 0.333
  electrical conductivity: 0.0047 S/m
  speed of sound: 1614.6 m/s
  viscosity: 7500 mPa·s
298.15 K, x2 = 0.333
  electrical conductivity: 0.0082 S/m
  speed of sound: 1592.1 m/s
  viscosity: 5650 mPa·s
303.15 K, x2 = 0.333
  electrical conductivity: 0.0139 S/m
  speed of sound: 1572.5 m/s
  viscosity: 3900 mPa·s
308.15 K, x2 = 0.333
  electrical conductivity: 0.0234 S/m
  speed of sound: 1554.9 m/s
  viscosity: 2300 mPa·s
313.15 K, x2 = 0.333
  electrical conductivity: 0.0364 S/m
  speed of sound: 1538.8 m/s
  viscosity: 1500 mPa·s
318.15 K, x2 = 0.333
  electrical conductivity: 0.0539 S/m
  speed of sound: 1523.4 m/s
  viscosity: 1000 mPa·s
323.15 K, x2 = 0.333
  electrical conductivity: 0.0773 S/m
  speed of sound: 1508.7 m/s
  viscosity: 750 mPa·s
328.15 K, x2 = 0.333
  electrical conductivity: 0.105 S/m
  speed of sound: 1494.3 m/s
  viscosity: 550 mPa·s

## Oc1cccc(O)c1O + CCC[N+](CCC)(CCC)CCC.[Br-]
298.15 K, x2 = 0.5
  electrical conductivity: 0.0031 S/m
  speed of sound: 1855.2 m/s
  viscosity: 25000 mPa·s
318.15 K, x2 = 0.5
  electrical conductivity: 0.0259 S/m
  speed of sound: 1704.1 m/s
  viscosity: 4800 mPa·s
323.15 K, x2 = 0.5
  electrical conductivity: 0.04 S/m
  speed of sound: 1674.1 m/s
  viscosity: 3500 mPa·s
328.15 K, x2 = 0.5
  electrical conductivity: 0.0703 S/m
  speed of sound: 1652.9 m/s
  viscosity: 2550 mPa·s
